Reference: the CheMixHub viscosity set

Assay: xn = mol fraction of the nth substance listed

Cc1cccc(O)c1 + CCC(=O)O
viscosity [mPa·s], 101 kPa
Conditions | x2 = 0.1345 | x2 = 0.2591 | x2 = 0.3747 | x2 = 0.4825 | x2 = 0.5831 | x2 = 0.6772 | x2 = 0.7654 | x2 = 0.8483 | x2 = 0.9264
298.15 K | 9.375 | 7.067 | 5.436 | 4.234 | 3.319 | 2.606 | 2.045 | 1.606 | 1.269
308.15 K | 5.793 | 4.756 | 3.908 | 3.221 | 2.608 | 2.105 | 1.658 | 1.316 | 1.088
318.15 K | 4.646 | 3.935 | 3.285 | 2.719 | 2.255 | 1.884 | 1.566 | 1.277 | 0.9609

C[N+](=O)[O-] + CO
viscosity [mPa·s]
Conditions | 293.15 K | 298.15 K | 303.15 K | 313.15 K
101 kPa, x1 = 0.0771 | – | 0.5277 | – | –
101 kPa, x1 = 0.1586 | – | 0.5151 | – | –
101 kPa, x1 = 0.216 | – | 0.503 | – | –
101 kPa, x1 = 0.238 | – | 0.502 | – | –
101 kPa, x1 = 0.24 | – | 0.501 | – | –
101 kPa, x1 = 0.244 | – | 0.5 | – | –
101 kPa, x1 = 0.2441 | – | 0.5082 | – | –
101 kPa, x1 = 0.3345 | – | 0.5081 | – | –
101 kPa, x1 = 0.4298 | – | 0.5102 | – | –
101 kPa, x1 = 0.496 | – | 0.495 | – | –
101 kPa, x1 = 0.5305 | – | 0.5169 | – | –
101 kPa, x1 = 0.539 | – | 0.497 | – | –
101 kPa, x1 = 0.579 | – | 0.5 | – | –
101 kPa, x1 = 0.6375 | – | 0.5265 | – | –
101 kPa, x1 = 0.7509 | – | 0.5426 | – | –
101 kPa, x1 = 0.861 | – | 0.55 | – | –
101 kPa, x1 = 0.863 | – | 0.55 | – | –
101 kPa, x1 = 0.8715 | – | 0.5721 | – | –
101 kPa, x1 = 0.875 | – | 0.554 | – | –
101.33 kPa, x2 = 0.0503 | 0.617 | – | 0.551 | 0.493
101.33 kPa, x2 = 0.1004 | 0.596 | – | 0.528 | 0.473
101.33 kPa, x2 = 0.15 | 0.575 | – | 0.511 | 0.458
101.33 kPa, x2 = 0.2003 | 0.561 | – | 0.498 | 0.445
101.33 kPa, x2 = 0.2501 | 0.552 | – | 0.489 | 0.435
101.33 kPa, x2 = 0.3 | 0.542 | – | 0.479 | 0.427
101.33 kPa, x2 = 0.3502 | 0.536 | – | 0.474 | 0.421
101.33 kPa, x2 = 0.4 | 0.531 | – | 0.469 | 0.416
101.33 kPa, x2 = 0.4501 | 0.527 | – | 0.464 | 0.412
101.33 kPa, x2 = 0.5 | 0.525 | – | 0.461 | 0.408
101.33 kPa, x2 = 0.55 | 0.524 | – | 0.459 | 0.406
101.33 kPa, x2 = 0.6001 | 0.524 | – | 0.459 | 0.405
101.33 kPa, x2 = 0.65 | 0.525 | – | 0.458 | 0.405
101.33 kPa, x2 = 0.7 | 0.526 | – | 0.461 | 0.406
101.33 kPa, x2 = 0.7501 | 0.53 | – | 0.463 | 0.409
101.33 kPa, x2 = 0.8 | 0.538 | – | 0.468 | 0.412
101.33 kPa, x2 = 0.8501 | 0.545 | – | 0.474 | 0.417
101.33 kPa, x2 = 0.9 | 0.553 | – | 0.482 | 0.423
101.33 kPa, x2 = 0.95 | 0.566 | – | 0.491 | 0.432

CCCC[NH2+]CCO.O=C([O-])c1ccccc1O + O
100 kPa, x2 = 0.142
Conditions | viscosity [mPa·s]
298 K | 876
303 K | 582.8
313 K | 275.5
323 K | 145

N[C@@H](Cc1c[nH]cn1)C(=O)[O-].[K+] + O
viscosity [mPa·s], 101.3 kPa
Conditions | 293.15 K | 298.15 K | 303.15 K | 308.15 K | 313.15 K | 318.15 K | 323.15 K
x1 = 0.00475 | 1.09 | 0.9617 | 0.8629 | 0.7803 | 0.7087 | 0.648 | 0.5955
x1 = 0.00983 | 1.242 | 1.093 | 0.9797 | 0.8847 | 0.8025 | 0.7344 | 0.6734
x1 = 0.0145 | 1.421 | 1.252 | 1.119 | 1.007 | 0.9131 | 0.8323 | 0.7621
x1 = 0.02037 | 1.662 | 1.457 | 1.299 | 1.167 | 1.053 | 0.9568 | 0.8736
x1 = 0.03224 | 2.28 | 2.002 | 1.768 | 1.578 | 1.417 | 1.279 | 1.164
x1 = 0.04399 | 3.048 | 2.632 | 2.315 | 2.049 | 1.828 | 1.641 | 1.484

Brc1ccc(Br)cc1 + c1ccccc1
viscosity [mPa·s], 101 kPa
Conditions | 298.15 K | 303.15 K | 308.15 K | 313.15 K
x1 = 0.2002 | 0.8249 | 0.7715 | 0.719 | 0.6739
x1 = 0.2312 | 0.8532 | 0.8051 | 0.7502 | 0.7021
